Results on seven molecules are retold here after patent publication US20060093562A1 (priority 2004, published 2006).

A short description of series [1]: Foam height test (vortexed paste/gel/water mixture with surfactant). It is filed as physicochemical. The following applies: 1% total surfactant (actives); for Total Height: 1 g surfactant-free paste of Table 1, 1 g surfactant-free gel of Table 2, 6 g water, vortex 1 minute, foam plus liquid underneath; for Liquid Height: volume of liquid underneath the foam, less than 5 mL not quantifiable. On the procedure: The test used 1% total surfactant (actives). The surfactant was added to an aqueous mixture containing 1 g of surfactant-free paste of Table 1, 1 g of the surfactant-free version of the gel of Table 2, and 6 g of water. The mixture, prepared in a centrifuge tube, is placed on a Vortex-Genie 2 (Scientific Industries) on setting 5, and allowed to vortex for 1 minute. The total height measured was the total volume of the foam plus any liquid underneath. The liquid height was the volume of liquid underneath the foam. Liquid volumes of less than 5 mL could not be quantified since the lowest level on the centrifuge tube used to conduct the foam test was 5 mL.

The format of series [2] is physicochemical. The following applies: paste of Table 1 with surfactant.

Read-outs that look alike come from different tables or passages of the source.

For “Sodium Laureth Sulfate, 3 Ether Groups [SLES-3]”, in series [1], the “Total Height” value came to 10 mL and the “Liquid Height” value is on record as 7 mL.
For the molecule “Sodium Laureth Sulfate, 1 Ether Group [SLES-1]”, in series [1], the “Total Height” value worked out at 9 mL and the “Liquid Height” value amounted to 7 mL.
For `CCCCCCCCCCOS(=O)(=O)[O-].[Na+]` [SDS, Sodium Decyl Sulfate] the same measures were 19 mL and less than 5 mL.
`O=C([O-])O.[Na+]` [sodium bicarbonate]: the Saturated solution concentration entry is “about 3.8%”.
On to “Sodium Laureth Sulfate, 2 Ether Groups [SLES-2]”, for which, in series [1], the “Total Height” value worked out at 9 mL and the “Liquid Height” value was found to be 7 mL.
`CCCCCCCCCCCCOS(=O)(=O)[O-].[Na+]` [SLS, Sodium Lauryl Sulfate]: in series [2] (stored at 100° F.), the “Phase Behavior” value is reported as “Single Phase”. In series [2] (stored at RT), the “Phase Behavior” value is “Single Phase”. In series [1], the “Total Height” value turned out to be 9 mL and the “Liquid Height” value was found to be 7 mL.
Turning to Cocamidopropyl Betaine [CBT], in series [1], the “Total Height” value is listed as 10 mL and the “Liquid Height” value was 7 mL.
